Assay results taken from patent publication EP4755888A1 (ILAb Co., Ltd., priority 2023, dated 2025).

Biological target: PD-1/PD-L1 (Homo sapiens, UniProt Q9NZQ7)
Test: TR-FRET PD-1/PD-L1 binding inhibition at the molecular level (free proteins)
Settings: Tag1-PD-L1 and Tag2-PD-1 proteins, twelve concentrations from 200 nM, 2 hours at room temperature, read-out: FRET assay (IC50)
How it was run: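 HTRF read-out at 665/620 nm after 2 h at room temperature. Detection used anti-Tag1 Eu cryptate plus anti-Tag2 XL665 antibodies. Tagged PD-L1 and PD-1 proteins were pre-mixed with compound across twelve […] 1:2 dilutions starting at 200 nM.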

PD-1/PD-L1, sequence (Q9NZQ7 19-238 limits assumed): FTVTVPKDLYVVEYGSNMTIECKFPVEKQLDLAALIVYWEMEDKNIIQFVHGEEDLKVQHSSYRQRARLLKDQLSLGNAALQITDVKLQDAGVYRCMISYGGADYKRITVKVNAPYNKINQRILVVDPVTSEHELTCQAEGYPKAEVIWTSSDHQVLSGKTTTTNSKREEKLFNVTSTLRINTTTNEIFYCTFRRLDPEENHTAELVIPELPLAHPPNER

SMILES	IC50 [nM]
CC(C)c1nc(Nc2cccc(-c3cccc(NC(=O)c4cc5n(n4)CCC[C@@H]5N4CCC(C(=O)O)CC4)c3Cl)c2Cl)c2ncccc2n1 [Compound 297, (S)-1-(2-((2,2'-dichloro-3'-((2-isopropylpyrido[3,2-d]pyrimidin-4-yl)amino)-[1,1'-biphenyl]-3-yl)carbamoyl)-4,5,6,7-tetrahydropyrazolo[1,5-a]pyridin-4-yl)piperidine-4-carboxylic acid]	100 to 1000
Cc1c(NC(=O)c2cc3n(n2)CCC[C@H]3N2CCC(C(=O)O)CC2)cccc1-c1cccc(Nc2nc(C(F)(F)F)nc3cc(CN4CC[C@@H](O)C4)cnc23)c1C (stereo in doubt) [Compound 343, 1-((R)-2-((3'-((7-(((R)-3-hydroxypyrrolidin-1-yl)methyl)-2-(trifluoromethyl)pyrido[3,2-d]pyrimidin-4-yl)amino)-2,2'-dimethyl-[1,1'-biphenyl]-3-yl)carbamoyl)-4,5,6,7-tetrahydropyrazolo[1,5-a]pyridin-4-yl)piperidine-4-carboxylic acid]	10 to 100
O=C(Nc1cccc(-c2cccc(Nc3nccc4cc(CN5CC[C@@H](O)C5)cnc34)c2Cl)c1Cl)c1cc2n(n1)CCCC2N1CCC(C(=O)O)CC1 (stereo partly drawn) [Compound 24, 1-(2-((2,2'-dichloro-3'-((3-(((R)-3-hydroxypyrrolidin-1-yl)methyl)-1,7-naphthyridin-8-yl)amino)-[1,1'-biphenyl]-3-yl)carbamoyl)-4,5,6,7-tetrahydropyrazolo[1,5-a]pyridin-4-yl)piperidine-4-carboxylic acid]	10 to 100
Cc1nc(Nc2cccc(-c3cccc(NC(=O)c4cc5n(n4)CCC[C@H]5N4CC(C(=O)O)C4)c3Cl)c2Cl)c2ncccc2n1 [Compound 282, (R)-1-(2-((2,2'-dichloro-3'-((2-methylpyrido[3,2-d]pyrimidin-4-yl)amino)-[1,1'-biphenyl]-3-yl)carbamoyl)-4,5,6,7-tetrahydropyrazolo[1,5-a]pyridin-4-yl)azetidine-3-carboxylic acid]	< 10
Cc1c(NC(=O)c2cc3n(n2)CCCC3N2CCC(C(=O)O)CC2)cccc1-c1cccc(Nc2nccc3cc(CN4CC[C@@H](O)C4)cnc23)c1Cl (stereo partly drawn) [Compound 44, 1-(2-((2'-chloro-3'-((3-(((R)-3-hydroxypyrrolidin-1-yl)methyl)-1,7-naphthyridin-8-yl)amino)-2-methyl-[1,1'-biphenyl]-3-yl)carbamoyl)-4,5,6,7-tetrahydropyrazolo[1,5-a]pyridin-4-yl)piperidine-4-carboxylic acid]	10 to 100
COc1nc(-c2cccc(-c3cccc(-c4cc5n(n4)CCCC5NCC(=O)O)c3Cl)c2Cl)cnc1CNC[C@@H]1CCC(=O)N1 (stereo partly drawn) [Compound 169, 2-((2-(2,2'-dichloro-3'-(6-methoxy-5-(((((S)-5-oxopyrrolidin-2-yl)methyl)amino)methyl)pyrazin-2-yl)-[1,1'-biphenyl]-3-yl)-4,5,6,7-tetrahydropyrazolo[1,5-a]pyridin-4-yl)amino)acetic acid]	< 10
CC(=O)N1CC2(C1)CN(C1CCCn3nc(C(=O)Nc4cccc(-c5cccc(Nc6nccc7cc(CN8CC[C@@H](O)C8)cnc67)c5Cl)c4Cl)cc31)C2 (stereo partly drawn) [Compound 236, 4-(6-acetyl-2,6-diazaspiro[3.3]heptan-2-yl)-N-(2,2'-dichloro-3'-((3-(((R)-3-hydroxypyrrolidin-1-yl)methyl)-1,7-naphthyridin-8-yl)amino)-[1,1'-biphenyl]-3-yl)-4,5,6,7-tetrahydropyrazolo[1,5-a]pyridine-2-carboxamide]	10 to 100
Cc1c(NC(=O)c2cc3n(n2)CCCC3NCCO)cccc1-c1cccc(Nc2nc(C(F)F)nc3cc(CN4CC[C@@H](O)C4)cnc23)c1C (stereo partly drawn) [Compound 132, N-(3'-((2-(difluoromethyl)-7-(((R)-3-hydroxypyrrolidin-1-yl)methyl)pyrido[3,2-d]pyrimidin-4-yl)amino)-2,2'-dimethyl-[1,1'-biphenyl]-3-yl)-4-((2-hydroxyethyl)amino)-4,5,6,7-tetrahydropyrazolo[1,5-a]pyridine-2-carboxamide]	< 10
Cc1c(NC(=O)c2cc3n(n2)CCCC3NCC(=O)O)cccc1-c1cccc(-c2nc3c(s2)CCN(C)C3)c1C (stereo not drawn) [Compound 153, 2-((2-((2,2'-dimethyl-3'-(5-methyl-4,5,6,7-tetrahydrothiazolo[4,5-c]pyridin-2-yl)-[1,1'-biphenyl]-3-yl)carbamoyl)-4,5,6,7-tetrahydropyrazolo[1,5-a]pyridin-4-yl)amino)acetic acid]	< 10
CN(C)[C@H]1CCCn2nc(C(=O)Nc3cccc(-c4cccc(NC(=O)c5cc6n(n5)CCC[C@@H]6NCCO)c4Cl)c3Cl)cc21 [Compound 313, (S)-N-(2,2'-dichloro-3'-((S)-4-((2-hydroxyethyl)amino)-4,5,6,7-tetrahydropyrazolo[1,5-a]pyridine-2-carboxamido)-[1,1'-biphenyl]-3-yl)-4-(dimethylamino)-4,5,6,7-tetrahydropyrazolo[1,5-a]pyridine-2-carboxamide]	< 10

More lines, now with the values ahead:

IC50 [nM]	SMILES
10 to 100	CC(C)c1nc(Nc2cccc(-c3cccc(NC(=O)c4cc5n(n4)CCC[C@@H]5N4CCC(C(=O)O)CC4)c3Cl)c2Cl)c2ncccc2n1 (stereo in doubt) [Compound 298, (S)-1-(2-((2,2'-dichloro-3'-((2-isopropylpyrido[3,2-d]pyrimidin-4-yl)amino)-[1,1'-biphenyl]-3-yl)carbamoyl)-4,5,6,7-tetrahydropyrazolo[1,5-a]pyridin-4-yl)piperidine-4-carboxylic acid]
10 to 100	CN[C@H]1CCCn2nc(C(=O)Nc3cccc(-c4cccc(Nc5nc(C(F)(F)F)nc6cccnc56)c4Cl)c3Cl)cc21 [Compound 356, (S)-N-(2,2'-dichloro-3'-((2-(trifluoromethyl)pyrido[3,2-d]pyrimidin-4-yl)amino)-[1,1'-biphenyl]-3-yl)-4-(methylamino)-4,5,6,7-tetrahydropyrazolo[1,5-a]pyridine-2-carboxamide]
< 10	O=C(Nc1cccc(-c2cccc(NC(=O)c3cc4n(n3)CCCC4N3CC[C@@H](C(=O)O)C3)c2Cl)c1Cl)c1ccc(CN2CC[C@@H](O)C2)cn1 (stereo partly drawn) [Compound 105, (3R)-1-(2-((2,2'-dichloro-3'-(5-(((R)-3-hydroxypyrrolidin-1-yl)methyl)picolinamido)-[1,1'-biphenyl]-3-yl)carbamoyl)-4,5,6,7-tetrahydropyrazolo[1,5-a]pyridin-4-yl)pyrrolidine-3-carboxylic acid]
10 to 100	Cc1c(NC(=O)c2cc3n(n2)CCCC3NCC(=O)O)cccc1-c1cccc(Nc2nc(C(F)F)nc3cc(CN4CC[C@@H](O)C4)cnc23)c1C (stereo partly drawn) [Compound 134, 2-((2-((3'-((2-(difluoromethyl)-7-(((R)-3-hydroxypyrrolidin-1-yl)methyl)pyrido[3,2-d]pyrimidin-4-yl)amino)-2,2'-dimethyl-[1,1'-biphenyl]-3-yl)carbamoyl)-4,5,6,7-tetrahydropyrazolo[1,5-a]pyridin-4-yl)amino)acetic acid]
10 to 100	CC(C)(O)C1CN(C2CCCn3nc(C(=O)Nc4cccc(-c5cccc(Nc6nccc7cc(CN8CC[C@@H](O)C8)cnc67)c5Cl)c4Cl)cc32)C1 (stereo partly drawn) [Compound 237, N-(2,2'-dichloro-3'-((3-(((R)-3-hydroxypyrrolidin-1-yl)methyl)-1,7-naphthyridin-8-yl)amino)-[1,1'-biphenyl]-3-yl)-4-(3-(2-hydroxypropan-2-yl)azetidin-1-yl)-4,5,6,7-tetrahydropyrazolo[1,5-a]pyridine-2-carboxamide]
